Ends that are not written are not given here.
Tested on: rats
Test: Behavioral arousal, locomotion and grooming behavior
Conditions: rat, in vivo

Effect on behavioral arousal, locomotion and grooming behavior: did not have an effect
Substance: MAGILSG [PEP7, MAGILSG (SEQ ID NO: 1)]
